{"source": "patent US20050026068A1", "about": "“Polycarbocyclic derivatives for modification of resist, optical and etch resistance properties” (priority 2001, published 2005)", "key": {"[1]": {"experiment": "UV absorbance of PMMA films loaded with additive", "assay_type": "physicochemical", "conditions": "additive 7.5% w/w of PMMA", "method": "A quantity of a polyaromatic compound (i.e.compound (XI), Table 9), was added in part of this solution at a 7.5% w/w of the polymer concentration.\nThe solution was stirred at room temperature for a few hours and the polyaromatic compound was dissolved. Then, a small amount of the solution was used to spin coat a film on quartz substrate at 4000 rpm for 30 sec. The thickness of this film was measured by a profilometer and found 12250 Å. The absorption spectrum of the film was taken at vertical incidence.\nThe same procedure was repeated, using the initial PMMA solution this time. A new film was spun and its thickness was found 13000 Å. […]"}, "[2]": {"experiment": "Sublimation of additive from PMMA film on hotplate heating (absorption spectra)", "assay_type": "physicochemical", "method": "The same procedure was repeated for heating at 110° C., 130° C. and 160° C. The spectra taken each time were compared and the possible sublimation of the additive after the different thermal treatment procedures was calculated.\nThe following explanations apply to all tables. […] SUBL=temperature of sublimation."}, "[3]": {"experiment": "UV absorbance of PMMA films loaded with additive", "assay_type": "physicochemical", "conditions": "additive 5% w/w of PMMA; value includes PMMA absorbance (higher by 0.07)"}, "[4]": {"experiment": "Solubility of additive in the solvents used (PGMEA, MIBK)", "quoted_text": "It is important that the selected additive is soluble in the solvents commonly used in the microlithography process. […] After film formation the amount of the additive sublimed during the baking cycles was tested. Evaluation of spectroscopic and etch resistance enhancement followed.\nSOL=solubility at the solvents used (##=very bad, #=bad, *=good, **=very good). SUBL=temperature of sublimation."}}}
{"smiles": "CC(=O)C1CCC2C3CC=C4CC(OC(=O)c5c6ccccc6cc6ccccc56)CCC4(C)C3CCC12C", "note": "(stereo not drawn) [Compound XIV, 5-pregnen-3β-yl-(9-anthryl-methylate)-20-one]", "values": [{"measurement": "UV 193 nm (absorbance)", "setting": "[1]", "result": "0.20 /0.5 μm"}, {"measurement": "UV 248 nm (absorbance)", "setting": "[1]", "result": "0.52 /0.5 μm"}, {"measurement": "SUBL (temperature of sublimation)", "setting": "[2]; additive 7.5% w/w in PMMA film", "result": 160, "unit": "°C"}]}
{"smiles": "O=C(OCCOc1c2ccccc2cc2ccccc12)OCCOc1c2ccccc2cc2ccccc12", "note": "[VI, Di-2-(9-anthryloxy)-ethyl carbonate]", "values": [{"measurement": "UV 193 nm (absorbance)", "setting": "[1]", "result": "0.24 /0.5 μm"}, {"measurement": "UV 248 nm (absorbance)", "setting": "[1]", "result": "1.04 /0.5 μm"}, {"measurement": "SUBL (temperature of sublimation)", "setting": "[2]; additive 7.5% w/w in PMMA film", "result": 130, "unit": "°C"}]}
{"smiles": "Nc1ccc2cc3ccccc3cc2c1", "note": "[2-aminoanthracene]", "values": [{"measurement": "UV 193 nm (absorbance)", "setting": "[3]", "result": "0.51 /0.5 μm"}, {"measurement": "SUBL (temperature of sublimation)", "setting": "[2]; additive 5% w/w in PMMA film", "result": 110, "unit": "°C"}]}
{"smiles": "O=C(O)c1c2ccccc2cc2ccccc12", "note": "[9-anthracene carboxylic acid]", "values": [{"measurement": "UV 193 nm (absorbance)", "setting": "[3]", "result": "0.46 /0.5 μm"}, {"measurement": "SUBL (temperature of sublimation)", "setting": "[2]; additive 5% w/w in PMMA film", "result": 110, "unit": "°C"}]}
{"smiles": "c1ccc2cc3ccccc3cc2c1", "note": "[anthracene]", "values": [{"measurement": "UV 193 nm (absorbance)", "setting": "[3]", "result": "0.38 /0.5 μm"}, {"measurement": "SUBL (temperature of sublimation)", "setting": "[2]; additive 5% w/w in PMMA film", "result": 110, "unit": "°C"}]}
{"smiles": "O=C(CCC(=O)OC(Cc1c2ccccc2cc2ccccc12)Cc1c2ccccc2cc2ccccc12)OCC(COC(=O)CCC(=O)OC(Cc1c2ccccc2cc2ccccc12)Cc1c2ccccc2cc2ccccc12)Cc1c2ccccc2cc2ccccc12", "note": "[X, Penta-anthryl ester]", "values": [{"measurement": "UV 193 nm (absorbance)", "setting": "[1]", "result": "0.33 /0.5 μm"}, {"measurement": "UV 248 nm (absorbance)", "setting": "[1]", "result": "0.75 /0.5 μm"}, {"measurement": "solubility (in words)", "setting": "[4]", "result": "decreased solubility"}, {"measurement": "SUBL (temperature of sublimation)", "setting": "[2]; additive 7.5% w/w in PMMA film", "result": 160, "unit": "°C"}]}
{"smiles": "OC(Cc1c2ccccc2cc2ccccc12)Cc1c2ccccc2cc2ccccc12", "note": "[I]", "values": [{"measurement": "UV 193 nm (absorbance)", "setting": "[1]", "result": "0.16 /0.5 μm"}, {"measurement": "UV 248 nm (absorbance)", "setting": "[1]", "result": "0.48 /0.5 μm"}, {"measurement": "solubility (in words)", "setting": "[4]", "result": "improved solubility"}, {"measurement": "SUBL (temperature of sublimation)", "setting": "[2]; additive 7.5% w/w in PMMA film", "result": 160, "unit": "°C"}]}
{"smiles": "O=C(OCc1c2ccccc2cc2ccccc12)c1c2ccccc2cc2ccccc12", "note": "[VII]", "values": [{"measurement": "UV 193 nm (absorbance)", "setting": "[1]", "result": "0.35 /0.5 μm"}, {"measurement": "UV 248 nm (absorbance)", "setting": "[1]", "result": "1.16 /0.5 μm"}, {"measurement": "solubility (in words)", "setting": "[4]", "result": "not satisfactory"}, {"measurement": "SUBL (temperature of sublimation)", "setting": "[2]; additive 7.5% w/w in PMMA film", "result": 160, "unit": "°C"}]}
{"smiles": "O=C(O)CCC(=O)OC(Cc1c2ccccc2cc2ccccc12)Cc1c2ccccc2cc2ccccc12", "note": "[II, 1,3-di-(9-anthryl2-propyl hydrogen succinate]", "values": [{"measurement": "UV 193 nm (absorbance)", "setting": "[1]", "result": "0.33 /0.5 μm"}, {"measurement": "UV 248 nm (absorbance)", "setting": "[1]", "result": "1.25 /0.5 μm"}, {"measurement": "solubility (in words)", "setting": "[4]", "result": "improved solubility"}, {"measurement": "SUBL (temperature of sublimation)", "setting": "[2]; additive 7.5% w/w in PMMA film", "result": 160, "unit": "°C"}]}
{"smiles": "O=C(OCC(COC(=O)C12CC3CC(CC(C3)C1)C2)Cc1c2ccccc2cc2ccccc12)C12CC3CC(CC(C3)C1)C2", "note": "(stereo not drawn) [Compound XIII, Mixed anthryl ester]", "values": [{"measurement": "UV 193 nm (absorbance)", "setting": "[1]", "result": "0.17 /0.5 μm"}, {"measurement": "UV 248 nm (absorbance)", "setting": "[1]", "result": "0.45 /0.5 μm"}, {"measurement": "SUBL (temperature of sublimation)", "setting": "[2]; additive 7.5% w/w in PMMA film", "result": 160, "unit": "°C"}]}
{"smiles": "OCc1c2ccccc2cc2ccccc12", "note": "[9-anthracene methanol]", "values": [{"measurement": "UV 193 nm (absorbance)", "setting": "[3]", "result": "0.43 /0.5 μm"}, {"measurement": "SUBL (temperature of sublimation)", "setting": "[2]; additive 5% w/w in PMMA film", "result": 110, "unit": "°C"}]}
{"smiles": "c1ccc2c(CNC3CCCCC3NCc3c4ccccc4cc4ccccc34)c3ccccc3cc2c1", "note": "(stereo not drawn) [VIII, trans-1,2-Di-(9-aminomethyl-anthryl)-cyclohexane]", "values": [{"measurement": "solubility (in words)", "setting": "[4]", "result": "improved solubility"}]}
{"smiles": "O=C(OCc1c2ccccc2cc2ccccc12)C12CC3CC(CC(C3)C1)C2", "note": "[XI, 1-adamantyl 9-anthrylmethylate]", "values": [{"measurement": "UV 193 nm (absorbance)", "setting": "[1]", "result": "0.05 /0.5 μm"}, {"measurement": "UV 248 nm (absorbance)", "setting": "[1]", "result": "0.36 /0.5 μm"}, {"measurement": "solubility (in words)", "setting": "[4]", "result": "very good solubility"}, {"measurement": "SUBL (temperature of sublimation)", "setting": "[2]; additive 7.5% w/w in PMMA film", "result": 160, "unit": "°C"}]}
{"smiles": "O=C(CCC(=O)OC(Cc1c2ccccc2cc2ccccc12)Cc1c2ccccc2cc2ccccc12)OCc1c2ccccc2cc2ccccc12", "note": "[IX, 1,3-Di-(9-anthryl)-2-propyl 9-anthrylmethyl Succinate]", "values": [{"measurement": "UV 193 nm (absorbance)", "setting": "[1]", "result": "1.41 /0.5 μm"}, {"measurement": "UV 248 nm (absorbance)", "setting": "[1]", "result": "1.74 /0.5 μm"}, {"measurement": "solubility (in words)", "setting": "[4]", "result": "decreased solubility"}, {"measurement": "SUBL (temperature of sublimation)", "setting": "[2]; additive 7.5% w/w in PMMA film", "result": 160, "unit": "°C"}]}
{"smiles": "c1ccc2c(CNCc3c4ccccc4cc4ccccc34)c3ccccc3cc2c1", "note": "[IV, N,N-Di-(9-anthrylmethyl)-amine]", "values": [{"measurement": "UV 193 nm (absorbance)", "setting": "[1]", "result": "0.22 /0.5 μm"}, {"measurement": "UV 248 nm (absorbance)", "setting": "[1]", "result": "0.31 /0.5 μm"}, {"measurement": "SUBL (temperature of sublimation)", "setting": "[2]; additive 7.5% w/w in PMMA film", "result": 160, "unit": "°C"}]}
